Source: patent US9084770B2, “Modulation of insulin like growth factor I receptor expression in cancer” (Antisense Therapeutics, Ltd., priority 2008, dated 2015)
Strand notation (5' to 3'): a small letter for the sugar, then the base; units joined by * are phosphorothioate-linked, units joined directly phosphodiester-linked; [ ] holds rarer units or linkages, { } end groups; capitals alone tell only the bases. e = 2'-O-(2-methoxyethyl) (MOE); [5mC] = 5-methylcytosine; d = 2'-deoxy (DNA)

test system: human IGF-IR mRNA; experiment: Antisense inhibition of human IGF-IR mRNA levels by quantitative RT-PCR (Table 1); assay type: cell-based; design: %INHIB (human IGF-IR mRNA levels): concentration or dose not given beside the values; conditions: as shown in Table 1
Description: Treatment of A549 cell cultures with oligonucleotides targeting IGF-IR is as described in WO 2004/072284.
Quantitation of IGF-IR mRNA levels was accomplished by RT-PCR using the ABI PRISM (trademark) 7600, 7700, or 7900 Sequence Detection System (PE-Applied Biosystems, Foster City, Calif.) according to manufacturer's instructions. This is a closed-tube, non-gel-based, fluorescence detection system which allows high-throughput quantitation of PCR products in real-time. As opposed to standard PCR in which amplification products are quantitated after the PCR is completed, products in real-time quantitative PCR are quantitated as they accumulate. This is accomplished by including in the PCR reaction an oligonucleotide probe that anneals specifically between the forward and reverse PCR primers, and contains two fluorescent dyes. A reporter dye (e.g., FAM or JOE, obtained from either PE-Applied Biosystems, Foster City, Calif., Operon Technologies Inc., Alameda, Calif. or Integrated DNA Technologies Inc., Coralville, Iowa) is attached to the 5′-end of the probe and a quencher dye (e.g., TAMRA, obtained from either PE-Applied Biosystems, Foster City, Calif., Operon Technologies Inc., Alameda, Calif. or Integrated DNA Technologies Inc., Coralville, Iowa) is attached to the 3′-end of the probe. When the probe and dyes are intact, reporter dye emission is quenched by the proximity of the 3′ quencher dye. During amplification, annealing of the probe to the target sequence creates a substrate that can be cleaved by the 5′-exonuclease activity of Taq polymerase. […] With each cycle, additional reporter dye molecules are cleaved from their respective probes, and the fluorescence intensity is monitored at regular intervals by laser optics built into the ABI PRISM (trademark) Sequence Detection System. In each assay, a series of parallel reactions containing serial dilutions of mRNA from untreated control samples generates a standard curve that is used to quantitate the percent inhibition after antisense oligonucleotide treatment of test samples.
PCR reagents were obtained from Invitrogen Corporation, (Carlsbad, Calif.). RT-PCR reactions were carried out by adding 20 μL PCR cocktail (2.5×PCR buffer minus MgCl2, 6.6 mM MgCl2, 375 μM each of dATP, dCTP, […] and dGTP, 375 nM each of forward primer and reverse primer, 125 nM of probe, 4 Units RNAse inhibitor, 1.25 Units PLATINUM (registered trademark) Taq, 5 Units MuLV reverse transcriptase, and 2.5×ROX dye) to 96-well plates containing 30 μL total RNA solution (20-200 ng). The RT reaction was carried out by incubation for 30 minutes at 48° C. Following a 10 minute incubation at 95° C. to activate the PLATINUM (trademark) Taq, 40 cycles of a two-step PCR protocol were carried out: 95° C. for 15 seconds (denaturation) followed by 60° C. for 1.5 minutes (annealing/extension).
Gene target quantities obtained by RT-PCR are normalized using either the expression level of GAPDH, a gene whose expression is constant, or by quantifying total RNA using RiboGreen (trademark) (Molecular Probes, Inc. Eugene, Oreg.). GAPDH expression is quantified by RT-PCR, by being run simultaneously with the target, multiplexing, or separately. Total RNA is quantified using RiboGreen (trademark) RNA quantification reagent (Molecular Probes, Inc. Eugene, Oreg.). Methods of RNA quantification by RiboGreen (trademark) are taught in Jones et al., 1998.
Probes and primers to human IGF-IR were designed to hybridize to the IGF-IR nucleotide sequence, using published sequence information (GenBank accession number NM000875 (SEQ ID NO:76) or M69229 (SEQ ID NO:77) which is the 5′ untranslated of the IGF-IR gene sequence (see FIG. 6).
In accordance with the present invention, a series of antisense compounds were designed to target different regions of the human IGF-IR mRNA or the 5′ untranslated region, using published sequences set forth in NM000875 (SEQ ID NO:77) and M69229 (SEQ ID NO:76). […]

In the case of “175302 (antisense CCTCCATTTTCAAACCCGGA; listed as DNA, chemistry not fully specified) [compound 175302]”, the “inhibition of IGF-IR expression (lead compounds)” value (from here on “inhibition of IGF-IR expression”) is reported as “demonstrated inhibition”.
“175307 (antisense AAGTCTCAAACTCAGTCTTC; listed as DNA, chemistry not fully specified) [compound 175307]” was tested, and the “inhibition of IGF-IR expression” value was “demonstrated inhibition”.
With “175308 (antisense GTCGTCGGCCTCCATTTTCA; listed as DNA, chemistry not fully specified) [compound 175308]” the “inhibition of IGF-IR expression” value was “demonstrated inhibition”.
For “175314 (antisense e[5mC]*eT*e[5mC]*eG*e[5mC]*dT*dG*dA*dA*dG*dG*dT*d[5mC]*dA*d[5mC]*eA*eG*e[5mC]*e[5mC]*eG) [compound 175314]”, the “inhibition of IGF-IR expression” value was “demonstrated inhibition”.
“175316 (antisense GCTCGCTGAAGGTCACAGCC; listed as DNA, chemistry not fully specified) [compound 175316]” was tested, and the “inhibition of IGF-IR expression” value was “demonstrated inhibition”.
In the case of “175317 (antisense CGAAGGAAACAATACTCCGA; listed as DNA, chemistry not fully specified) [compound 175317]”, the “inhibition of IGF-IR expression” value is reported as “demonstrated inhibition”.
“175323 (antisense AATGAATGAGCGGCTCCCCC; listed as DNA, chemistry not fully specified) [compound 175323]” was tested, and the “inhibition of IGF-IR expression” value was “demonstrated inhibition”.

same assay, conditions: quantitative RT-PCR; averages from 3 experiments

Going from “175292 (antisense AGTCTCAAACTCAGTCTTCG; listed as DNA, chemistry not fully specified) [compound 175292]” to “175293 (antisense GTTAATGCTGGTAAACAAGA; listed as DNA, chemistry not fully specified) [compound 175293]”, the “%INHIB (human IGF-IR mRNA levels)” value falls from 78% to 40%.

Compared with “175294 (antisense GAAGTCCGGGTCACAGGCGA; listed as DNA, chemistry not fully specified) [compound 175294]”, “175295 (antisense AACAAGAGCCCCAGCCTCGC; listed as DNA, chemistry not fully specified) [compound 175295]” is lower in “%INHIB (human IGF-IR mRNA levels)” value: 77% for the first, 76% for the second.

Compared with “175296 (antisense ATGCTGGTAAACAAGAGCCC; listed as DNA, chemistry not fully specified) [compound 175296]”, “175297 (antisense TGCTGGTAAACAAGAGCCCC; listed as DNA, chemistry not fully specified) [compound 175297]” is higher in “%INHIB (human IGF-IR mRNA levels)” value: 57% for the first, 61% for the second.

Compared with “175298 (antisense GGAGTCAAAATGAATGAGCG; listed as DNA, chemistry not fully specified) [compound 175298]”, “175299 (antisense AATCTGCCTAGGCGAGGAAA; listed as DNA, chemistry not fully specified) [compound 175299]” is higher in “%INHIB (human IGF-IR mRNA levels)” value: 74% for the first, 78% for the second.

First: 175300 (antisense GCTGGTAAACAAGAGCCCCA; listed as DNA, chemistry not fully specified) [compound 175300]
Second: 175301 (antisense AGCCCAAATCTGCCTAGGCG; listed as DNA, chemistry not fully specified) [compound 175301]
The “%INHIB (human IGF-IR mRNA levels)” value of the first is lower: 54% for the first, 77% for the second.

Compared with “175302 (antisense CCTCCATTTTCAAACCCGGA; listed as DNA, chemistry not fully specified) [compound 175302]”, “175303 (antisense GAAGGTCACAGCCGAGGCGA; listed as DNA, chemistry not fully specified) [compound 175303]” is lower in “%INHIB (human IGF-IR mRNA levels)” value: 93% for the first, 82% for the second.

Compared with “175304 (antisense TCGCTGAAGGTCACAGCCGA; listed as DNA, chemistry not fully specified) [compound 175304]”, “175305 (antisense ATCCAGGACACACACAAAGC; listed as DNA, chemistry not fully specified) [compound 175305]” is higher in “%INHIB (human IGF-IR mRNA levels)” value: 76% for the first, 81% for the second.

Compared with “175306 (antisense AAGTCCGGGTCACAGGCGAG; listed as DNA, chemistry not fully specified) [compound 175306]”, “175307 (antisense AAGTCTCAAACTCAGTCTTC; listed as DNA, chemistry not fully specified) [compound 175307]” is higher in “%INHIB (human IGF-IR mRNA levels)” value: 54% for the first, 86% for the second.

Compared with “175308 (antisense GTCGTCGGCCTCCATTTTCA; listed as DNA, chemistry not fully specified) [compound 175308]”, “175309 (antisense GCAGAAACGCGGAGTCAAAA; listed as DNA, chemistry not fully specified) [compound 175309]” is lower in “%INHIB (human IGF-IR mRNA levels)” value: 94% for the first, 72% for the second.

Going from “175310 (antisense GCGGCGAGCTCCTTCCCAAA; listed as DNA, chemistry not fully specified) [compound 175310]” to “175311 (antisense TAATGCTGGTAAACAAGAGC; listed as DNA, chemistry not fully specified) [compound 175311]”, the “%INHIB (human IGF-IR mRNA levels)” value falls from 76% to 53%.

Going from “175312 (antisense TTTCAAACCCGGAGAGGCAG; listed as DNA, chemistry not fully specified) [compound 175312]” to “175313 (antisense TAGGCGAGGAAAAACAAGCC; listed as DNA, chemistry not fully specified) [compound 175313]”, the “%INHIB (human IGF-IR mRNA levels)” value rises from 31% to 62%.

Compared with “175314 (antisense e[5mC]*eT*e[5mC]*eG*e[5mC]*dT*dG*dA*dA*dG*dG*dT*d[5mC]*dA*d[5mC]*eA*eG*e[5mC]*e[5mC]*eG) [compound 175314]”, “175315 (antisense GCAGCGGCCCAGGGCTCGGC; listed as DNA, chemistry not fully specified) [compound 175315]” is lower in “%INHIB (human IGF-IR mRNA levels)” value: 87% for the first, 75% for the second.

Compared with “175316 (antisense GCTCGCTGAAGGTCACAGCC; listed as DNA, chemistry not fully specified) [compound 175316]”, “175317 (antisense CGAAGGAAACAATACTCCGA; listed as DNA, chemistry not fully specified) [compound 175317]” is higher in “%INHIB (human IGF-IR mRNA levels)” value: 82% for the first, 84% for the second.

Going from “175318 (antisense GAAACGCGGAGTCAAAATGA; listed as DNA, chemistry not fully specified) [compound 175318]” to “175319 (antisense GAAACAATACTCCGAAGGGC; listed as DNA, chemistry not fully specified) [compound 175319]”, the “%INHIB (human IGF-IR mRNA levels)” value falls from 68% to 63%.

Compared with “175320 (antisense CCAAATCCAGGACACACACA; listed as DNA, chemistry not fully specified) [compound 175320]”, “175321 (antisense TCGGCCTCCATTTTCAAACC; listed as DNA, chemistry not fully specified) [compound 175321]” is higher in “%INHIB (human IGF-IR mRNA levels)” value: 64% for the first, 78% for the second.

First: 175322 (antisense TCCGGGTCACAGGCGAGGCC; listed as DNA, chemistry not fully specified) [compound 175322]
Second: 175323 (antisense AATGAATGAGCGGCTCCCCC; listed as DNA, chemistry not fully specified) [compound 175323]
The “%INHIB (human IGF-IR mRNA levels)” value of the first is lower: 67% for the first, 82% for the second.

Compared with “175324 (antisense TGAAGGTCACAGCCGAGGCG; listed as DNA, chemistry not fully specified) [compound 175324]”, “175325 (antisense AAGGTCACAGCCGAGGCGAG; listed as DNA, chemistry not fully specified) [compound 175325]” is lower in “%INHIB (human IGF-IR mRNA levels)” value: 57% for the first, 55% for the second.

Compared with “175326 (antisense CCCAAATCCAGGACACACAC; listed as DNA, chemistry not fully specified) [compound 175326]”, “175327 (antisense ACAAGTCTCAAACTCAGTCT; listed as DNA, chemistry not fully specified) [compound 175327]” is lower in “%INHIB (human IGF-IR mRNA levels)” value: 74% for the first, 61% for the second.
